According to ChEMBL document CHEMBL1156236, “Trypanoside, anti-tuberculosis, leishmanicidal, and cytotoxic activities of tetrahydrobenzothienopyrimidines” (Bioorg Med Chem, 2010):

Experiments:
MCF7 = experiment: Cytotoxicity against human MCF7 cells; format: functional
NCI-H460 = experiment: Cytotoxicity against human NCI-H460 cells; format: functional
DU-145 = experiment: Cytotoxicity against human DU145 cells; format: functional
K562 = experiment: Cytotoxicity against human K562 cells; format: functional
[1] = Cytotoxicity against BALB mouse 3T3 cells; format: cell-based; details: BALB 3T3 cells
M14 = experiment: Cytotoxicity against human M14 cells; format: functional
[2] = system: Mycobacterium tuberculosis; experiment: Antitubercular activity against Mycobacterium tuberculosis H37Rv ATCC 27294 after 7 days by microplate alamar blue assay; format: functional; details: H37Rv ATCC 27294, 168 h
Trypanosoma cruzi = experiment: Antitrypanosomal activity against Trypanosoma cruzi tulahuen C4 trypomastigotes infected in african green monkey Vero cells assessed as CPRG cleavage after 120 hrs by microplate reader; format: functional, organism-based
Leishmania amazonensis = experiment: Antileishmanial activity against Leishmania amazonensis MHOM/BR/76/LTB-012 amastigotes infected BALB/c mouse macrophages after 48 hrs by MTT assay; format: functional, organism-based; details: MHOM/BR/76/LTB-012, 48 h
[3] = Cytotoxicity against BALB/c mouse macrophages after 48 hrs by trypan blue dye exclusion method; format: cell-based; details: Macrophage
HT-29 = experiment: Cytotoxicity against human HT-29 cells; format: functional
[4] = Selectivity index, ratio of IC50 for BALB/c mouse macrophages to IC50 for Leishmania amazonensis MHOM/BR/76/LTB-012
[5] = Selectivity index, ratio of IC50 for african green monkey Vero cells to IC50 for Trypanosoma cruzi tulahuen C4; details: vero
Vero = experiment: Cytotoxicity against african green monkey Vero cells after 72 hrs by MTS assay; details: Chlorocebus sabaeus, Vero, 72 h

| SMILES | GI50 (MCF7) [µM] | GI50 (NCI-H460) [µM] | GI50 (DU-145) [µM] | GI50 (K562) [µM] | GI50 [1] [µM] | GI50 (M14) [µM] | MIC [2] [µM] | IC50 (Trypanosoma cruzi) [µM] | IC50 (Leishmania amazonensis) [µM] | IC50 [3] [µM] | GI50 (HT-29) [µM] | Ratio IC50 [4] | selectivity ratio [5] | IC50 (Vero) [µM] |
| --- | --- | --- | --- | --- | --- | --- | --- | --- | --- | --- | --- | --- | --- | --- |
| O=c1[nH]cc(F)c(=O)[nH]1 [FLUOROURACIL] | 4.5 | 2.3 | 5.3 | 89.9 | < 3 | 32.4 | – | – | – | – | – | – | – | – |
| O=[N+]([O-])c1ccccc1/C=N/Nc1ncnc2sc3c(c12)CCCC3 | 52 | 52.9 | 103 | > 170 | > 170 | > 170 | > 250 | > 25 | 108 | > 200 | > 170 | – | – | – |
| c1ccc(C(=NNc2ncnc3sc4c(c23)CCCC4)c2ccccc2)cc1 | > 170 | > 170 | > 170 | > 170 | > 170 | > 170 | > 250 | > 25 | 182 | 156 | > 170 | 0.9 | – | – |
| C[C@@H]1[C@H](O)[C@@H](C)/C=C/C=C/C=C/C=C/C=C/C=C/C=C/[C@H](O[C@@H]2O[C@H](C)[C@@H](O)[C@H](N)[C@@H]2O)C[C@@H]2O[C@](O)(C[C@@H](O)C[C@@H](O)[C@H](O)CC[C@@H](O)C[C@@H](O)CC(=O)O[C@H]1C)C[C@H](O)[C@H]2C(=O)O [AMPHOTERICIN B] | – | – | – | – | – | – | – | – | – | 5.4 | – | 54 | – | – |
| N#Cc1ccc(/C=N/Nc2ncnc3sc4c(c23)CCCC4)cc1 | 102 | > 170 | > 170 | > 170 | 150 | > 170 | > 300 | > 25 | 32.3 | 162 | > 170 | 5 | – | – |
| CC1CS(=O)(=O)CCN1/N=C/c1ccc([N+](=O)[O-])o1 (configuration not stated) [NIFURTIMOX] | – | – | – | – | – | – | – | 4.5 | – | – | – | – | 20.8 | 94 |
| C(=N\Nc1ncnc2sc3c(c12)CCCC3)/c1ccncc1 | 83.9 | 169 | 83.9 | 109 | 83.2 | > 150 | > 300 | > 25 | 233 | 154 | 153 | 0.7 | – | – |
| Cc1ccc(/C=N/Nc2ncnc3sc4c(c23)CCCC4)cc1 | 12.9 | 133 | > 170 | 7.1 | 37.5 | > 170 | > 250 | > 25 | 42.6 | 19.4 | > 170 | 0.5 | – | – |
| COc1cc(/C=N/Nc2ncnc3sc4c(c23)CCCC4)ccc1O | – | – | – | – | – | – | – | – | 7.2 | – | – | – | – | – |
| COc1cc(/C=N/Nc2ncnc3sc4c(c23)CCCC4)cc(OC)c1OC | 10.5 | 28.3 | 22.5 | 4.7 | 22.5 | 15.6 | > 250 | > 25 | 7.2 | 8.9 | 11.4 | 1.2 | – | – |
| O=[N+]([O-])c1ccc(/C=N/Nc2ncnc3sc4c(c23)CCCC4)cc1 | > 170 | > 170 | > 170 | > 170 | > 170 | > 170 | > 250 | > 25 | 38.5 | 199 | > 170 | 5.2 | – | – |
| COc1cc(/C=N/Nc2ncnc3sc4c(c23)CCCC4)cc(OC)c1O | > 170 | > 170 | 27.2 | > 170 | 27.3 | > 170 | > 250 | > 25 | 40.8 | 121 | > 170 | 3 | – | – |
